Series [1] concerns CD3/IL2 stimulated PBMC cells. The experiment in a line: IFNγ release from CD3/IL2 stimulated PBMC cells (assay (a)). The series is classed as cell-based. The conditions noted are these: Homo sapiens, CD3/IL2 stimulation, 48 h, ELISA. On the procedure: (a) IFNγ Release from CD3/IL2 Stimulated PBMC Cells
PBMCs from healthy subjects are separated from whole blood using a density gradient (Lymphoprep, Axis-Shield Healthcare). Cells are added to a 96 well plate, and compound at the desired concentration added 2 hours prior to stimulation with a mixture of monoclonal antibody to CD3 (1 μg/ml, eBioscience) and human recombinant IL2 (10 ng/ml, Peprotech). After 48 hours incubation under normal tissue culture conditions, supernatants are collected and IFNγ release determined by Sandwich ELISA (Duo-set, R&D System). The IC50 is determined from the dose response curve.
A general note: ELISA stands for enzyme-linked immunosorbent assay.

A further series relates to Jurkat cells. The experiment in a line: Cell cytotoxicity assay in Jurkat cells (assay (c)). The series is classed as cell-based, human. The conditions noted are these: 24 h, propidium iodide, normalised to DMSO control. On the procedure:
(c) Cell Cytotoxicity Assay
1×10^5 Jurkat cells (immortalised human T lymphocytes) are added to the appropriate number of wells of a 96 well plate in 100 μL of media (RPMI supplemented with 10% foetal bovine serum). 1 μL of DMSO control (final concentration 1.0% v/v) or test compound (final concentration 20, 5 or 1 μg/mL) is added to the wells and incubated at 37° C., 5% CO2. After 24 hours, the plate is centrifuged at 1200 rpm for 3 minutes and the supernatant discarded. Cells are then resuspended in 150 μL (final concentration 7.5 μg/mL) of propidium iodide (PI) in PBS and incubated at 37° C., 5% CO2 for 15 minutes. After 15 minutes, cells are analysed by flow cytometry (BD accuri) using the FL3 window. The % viability is calculated as the % of cells that are PI negative in the test wells normalised to the DMSO control.

A short description of series [2]: Solubility in fasted-state simulated colonic fluid (FaSSCoF) at pH 6.5. The series is classed as physicochemical. The conditions noted are these: 25 °C, pH 6.5, fassgf or other biorelevant, thermodynamic from solid, pH 6.5, 25° C. On the procedure:
The solubilities of compounds of the invention in FaSSCoF at pH 6.5 are determined using a modification of a previously-reported procedure (Vertzoni, M., et al. Pharm. Res. 2010, 27, 2187-2196). In place of the bile salt extract employed in the original procedure (which extract is no longer available), the modified procedure uses a mixture of sodium taurochlorate (0.15 g), glycocholic acid (0.15 g), ursodeoxycholic acid (0.05 g), cholic acid (0.05 g), and glycodeoxycholic acid (0.05 g). These five bile acids are ground together with a mortar and pestle to produce a fine white powder that is incorporated into the FaSSCoF, as outlined below.
Tris(hydroxymethyl)aminomethane (Tris; 0.275 g) and maleic acid (0.44 g) are dissolved in water (35 mL) to give a solution whose pH is adjusted to 6.5 by treatment with 0.5M NaOH (ca. 12 mL). The solution is then made up to 50 mL with water. A portion of this Tris/maleate buffer solution (ca. 25 mL) is added to a 0.5 L round-bottomed flask, before being treated with 0.00565 g of the bile acid mixture described above. Solutions of phosphatidylcholine (0.0111 g) in DCM (0.15 mL) and palmitic acid (0.0013 g) in DCM (0.15 mL) are added, then the organic solvent is evaporated off under reduced pressure at 40° C. until a clear solution, with no perceptible DCM odour, is achieved. The volume of the evaporated solution is adjusted to 50 mL by addition of the remainder of Tris/maleate buffer, then BSA (0.115 g) is added, before being dissolved by gentle agitation.
Test compounds are suspended in the pH 6.5 FaSSCoF medium to give a maximum final concentration of 2-10 mg/mL. The suspensions are equilibrated at 25° C. for 24 h, before being filtered through a glass fibre C filter. The filtrates are then diluted as appropriate for injection and quantification by HPLC with reference to a standard. Different volumes of the standard, diluted and undiluted sample solutions are injected and the solubilities are calculated using the peak areas determined by integration of the peak found at the same retention time as the principal peak in the standard injection.

Series [3] can be described thus: Systemic pharmacokinetics and total colon tissue distribution after single oral administration in mice. The conditions noted are these: oral 10 mg/kg. It is filed as in vivo, male C57BL/6 mice. On the procedure: Studies were conducted by Sai Life Sciences (Hinjewadi, Pune, India) to investigate the systemic pharmacokinetics and total colon tissue distribution of compounds of the invention following a single oral administration in male C57BL/6 mice.
A group of twenty four male mice were administered with a solution of test compound formulated at a dose of 10 mg/10 mL/kg in aqueous hydroxypropyl-β-cyclodextrin (20% w/v in water). Blood samples (approximately 60 μL) were collected from retro-orbital plexus of each mouse under light isoflurane anaesthesia such that the samples were obtained at 0.5, 1, 2, 4, 6, 8, 12 and 24 hr. The blood samples were collected from a set of three mice at each time point in a labeled micro centrifuge tube containing K2EDTA as anticoagulant. Plasma samples were separated by centrifugation at 4000 rpm for 10 min and stored below −70° C. until bioanalysis. After collection of blood sample, animals were humanely euthanized by carbon dioxide asphyxiation to collect total colon tissues. The colons were flushed with cold PBS (pH7.4) to remove contents. The total colon tissues were homogenized with cold PBS (pH7.4) of twice the weight of colon tissue and stored below −70° C. Total volume was three times the total colon tissue weights. All samples were processed for analysis by protein precipitation using acetonitrile and analyzed with a fit-for-purpose LC-MS/MS method. Pharmacokinetic parameters were calculated using the non-compartmental analysis tool of Phoenix WinNonlin® (Version 6.3).

[4] abbreviates: Run 1, read-out: pH 6.5 FaSSCoF Solubility Run 1.
Where [5] appears, read: Run 2, read-out: pH 6.5 FaSSCoF Solubility Run 2.

In brackets after ≈: the same amount, converted by molar mass. Read-outs that look alike come from different tables or passages of the source.

As for `CCc1cc(O)c(F)cc1-c1ccc2c(-c3nc4c([nH]3)CCN(C(=O)c3cnc(N(C)C5CCN(C)CC5)cn3)C4)n[nH]c2c1` [Example 1, (2-(6-(2-Ethyl-5-fluoro-4-hydroxyphenyl)-1H-indazol-3-yl)-1,4,6,7-tetrahydro-5H-imidazo[4,5-c]pyridin-5-yl)(5-(methyl(1-methylpiperidin-4-yl)amino)pyrazin-2-yl)methanone], 22.6 nM corresponded to half-maximal inhibition in series [1] (IC50). In addition, in the series with Jurkat cells, the “% viability at 1 μg/mL” value was 14%. Moreover, the solubility thermodynamic at 24 h in series [2] (setting [4]) and in series [2] (setting [5]) was 10 µg/mL (≈ 16.4 µM) each time.
Consider `CCc1cc(O)c(F)cc1-c1ccc2c(-c3nc4c([nH]3)CCN(C(=O)c3cnc(N5CCC[C@H]5CO)cn3)C4)n[nH]c2c1` [Example 2(h), (S)-(2-(6-(2-ethyl-5-fluoro-4-hydroxyphenyl)-1H-indazol-3-yl)-1,4,6,7-tetrahydro-5H-imidazo[4,5-c]pyridin-5-yl)(5-(2-(hydroxymethyl)pyrrolidin-1-yl)pyrazin-2-yl)methanone], for which the IC50 in series [1] came to 12.1 nM. Besides, in the series with Jurkat cells, the “% viability at 1 μg/mL” value worked out at 56%. The figures for the solubility thermodynamic at 24 h in series [2] (setting [4]) and in series [2] (setting [5]) were 30 µg/mL (≈ 51.5 µM) and 40 µg/mL (≈ 68.7 µM), respectively.
As to `CCc1cc(O)c(F)cc1-c1ccc2c(-c3nc4c([nH]3)CCN(C(=O)c3cnc(N5C[C@H]6CN(C)C[C@H]6C5)cn3)C4)n[nH]c2c1` [Example 2(t), (2-(6-(2-ethyl-5-fluoro-4-hydroxyphenyl)-1H-indazol-3-yl)-6,7-dihydro-1H-imidazo[4,5-c]pyridin-5(4H)-yl)(5-((3aR,6aS)-5-methylhexahydropyrrolo[3,4-c]pyrrol-2(1H)-yl)pyrazin-2-yl)methanone], the IC50 in series [1] is 15.2 nM. Further, the “% viability at 1 μg/mL” value with Jurkat cells is given as 18%.
Turning to `CCc1cc(O)c(F)cc1-c1ccc2c(-c3nc4c([nH]3)CCN(C(=O)c3cnc(N(C)CCN5CCCS5(=O)=O)cn3)C4)n[nH]c2c1` [Example 2(v), (5-((2-(1,1-dioxidoisothiazolidin-2-yl)ethyl)(methyl)amino)pyrazin-2-yl)(2-(6-(2-ethyl-5-fluoro-4-hydroxyphenyl)-1H-indazol-3-yl)-6,7-dihydro-1H-imidazo[4,5-c]pyridin-5(4H)-yl)methanone], in series [1], the IC50 worked out at 7.5 nM. The “% viability at 1 μg/mL” value with Jurkat cells is listed as 82%.
Regarding `CCc1cc(O)c(F)cc1-c1ccc2c(-c3nc4c([nH]3)CCN(C(=O)c3cnc(N5CCCCC5)cn3)C4)n[nH]c2c1` [Reference Compound, reference compound], in series [1], the IC50 amounted to 81.3 nM. Moreover, the “% viability at 1 μg/mL” value in the series on Jurkat cells amounted to 49%. Further, the solubility thermodynamic at 24 h in series [2] (setting [4]) and in series [2] (setting [5]) was 6 µg/mL (≈ 10.6 µM) in each case. In series [3] (male, C57BL/6, mouse, plasma, read-out: AUC0-24 h P (plasma)), the AUC(0-t) was determined as 368 ng·h/mL. The Cmax in series [3] (male, C57BL/6, mouse, plasma, read-out: Cmax P (plasma)) was 114 ng/mL; in series [3] (male, C57BL/6, mouse, total colon tissue, total colon, read-out: Cmax C (total colon)) it was 3230 ng/g. For the same molecule, the “AUC0-24 h C (total colon)” value in series [3] (total colon) was 43,739 h · ng/g.

One may read the IC50 as the concentration at which inhibition is half-maximal. Read a low IC50 as inhibition by little substance. The term Cmax denotes the highest concentration seen after dosing.

The values above are taken from patent US10851097B2, “4,5,6,7-tetrahydro-1H-imidazo[4,5-c]pyridine and 1,4,5,6,7,8-hexahydroimidazo[4,5-d]azepine derivatives as janus kinase inhibitors” (Topivert Pharma Limited, priority 2015, dated 2020).
